Measurements published in ChEMBL document CHEMBL1142965, “(Aryloxyacetylamino)benzoic acid analogues: A new class of hypoxia-inducible factor-1 inhibitors” (J Med Chem, 2007).
The source made the active and inactive calls. No cut-off for these calls is given here.

Tests used:
AGS = assay: cells; conditions: Homo sapiens
Description: Inhibition of hypoxia induced HIF1 transcriptional activity in human AGS cells by cell-based HRE reporter assay

[1] = molecular target: Hypoxia inducible factors; HIF-1-alpha, HIF-2-alpha (Homo sapiens, UniProt Q16665+Q99814); assay: Inhibition of hypoxia induced HIF1 transcriptional activity in human Hep3B cells by cell-based HRE reporter assay; format: functional; conditions: hep 3b2
[2] = molecular target: Hypoxia-inducible factor 1-alpha (Homo sapiens) (UniProt Q16665); assay: Inhibition of hypoxia-induced HIF1-alpha accumulation in human Hep3B cells; format: functional, cell-based; conditions: Hep 3B2
Hypoxia-inducible factor 1-alpha (Homo sapiens), sequence (Q16665 whole entry, looked up): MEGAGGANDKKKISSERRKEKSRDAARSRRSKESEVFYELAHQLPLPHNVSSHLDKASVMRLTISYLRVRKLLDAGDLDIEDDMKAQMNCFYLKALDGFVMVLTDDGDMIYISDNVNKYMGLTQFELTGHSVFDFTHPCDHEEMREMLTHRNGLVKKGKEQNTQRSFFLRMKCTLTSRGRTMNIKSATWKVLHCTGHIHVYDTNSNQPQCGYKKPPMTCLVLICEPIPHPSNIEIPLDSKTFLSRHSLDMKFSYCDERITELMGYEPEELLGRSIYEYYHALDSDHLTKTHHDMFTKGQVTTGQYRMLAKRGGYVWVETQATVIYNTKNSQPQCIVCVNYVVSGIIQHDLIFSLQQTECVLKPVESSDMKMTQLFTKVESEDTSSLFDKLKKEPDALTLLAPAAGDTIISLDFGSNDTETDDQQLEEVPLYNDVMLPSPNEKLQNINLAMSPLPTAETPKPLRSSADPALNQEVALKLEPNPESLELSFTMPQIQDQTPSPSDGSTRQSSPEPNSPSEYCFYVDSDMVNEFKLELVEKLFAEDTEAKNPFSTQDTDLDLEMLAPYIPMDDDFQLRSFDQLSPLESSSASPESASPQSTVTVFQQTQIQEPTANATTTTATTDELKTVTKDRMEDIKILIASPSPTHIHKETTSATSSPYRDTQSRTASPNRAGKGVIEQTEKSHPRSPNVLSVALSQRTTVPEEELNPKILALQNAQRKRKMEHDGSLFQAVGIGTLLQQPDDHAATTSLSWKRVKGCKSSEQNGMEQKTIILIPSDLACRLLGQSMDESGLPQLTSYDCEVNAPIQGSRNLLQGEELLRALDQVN

[3] = Suppression of hypoxia-induced VEGF mRNA expression in human Hep3B cells at 10 uM; format: functional, cell-based; conditions: Hep 3B2
[4] = Suppression of hypoxia-induced EPO mRNA expression in human Hep3B cells at 10 uM; format: functional, cell-based; conditions: Hep 3B2
[5] = Suppression of hypoxia-induced VEGF mRNA expression in human Hep3B cells; format: functional, cell-based; conditions: Hep 3B2
[6] = Suppression of hypoxia-induced HIF1-alpha mRNA expression in human Hep3B cells; format: functional, cell-based; conditions: Hep 3B2
[7] = Suppression of hypoxia-induced EPO mRNA expression in human Hep3B cells; format: functional, cell-based; conditions: Hep 3B2

Compound | IC50 (AGS) | IC50 [1] | other results
O=C(COc1ccccc1)Nc1cccc(C(=O)O)c1 | > 30 µM | > 30 µM | –
CC(=O)c1ccc(OCC(=O)Nc2cccc(C(=O)O)c2)cc1 | > 30 µM | > 30 µM | –
O=C(COc1ccc(-c2cccc([N+](=O)[O-])c2)cc1)Nc1cccc(C(=O)O)c1 | > 30 µM | > 30 µM | –
Cc1ccc(OCC(=O)Nc2cccc(C(=O)O)c2)cc1 | > 30 µM | > 30 µM | –
OCc1ccc(-c2nn(Cc3ccccc3)c3ccccc23)o1 | 2 µM | – | –
COc1cccc(-c2ccc(OCC(=O)Nc3cccc(C(=O)O)c3)cc2)c1 | 35 µM | > 30 µM | –
CN(C)C(=O)c1ccc(O)c(NC(=O)COc2ccc(C34CC5CC(CC(C5)C3)C4)cc2)c1 | > 30 µM | > 30 µM | –
O=C(COc1ccc(C23CC4CC(CC(C4)C2)C3)cc1)Nc1cc(C(=O)O)ccc1O | 0.35 µM | 0.4 µM | Activity [2]: Dose-dependent effect
O=C(COc1ccc(C23CC4CC(CC(C4)C2)C3)cc1)Nc1cccc(C(=O)Nc2ccc3ccccc3c2)c1 | > 30 µM | > 30 µM | –
NC(=O)c1cccc(NC(=O)COc2ccc([N+](=O)[O-])cc2)c1 | > 30 µM | > 30 µM | –
Cc1ccc(OCC(=O)Nc2cccc(C(N)=O)c2)cc1 | > 30 µM | > 30 µM | –
O=C(COc1ccc(F)cc1)Nc1cccc(C(=O)O)c1 | > 30 µM | > 30 µM | –
CC(C)(C)c1ccc(OCC(=O)Nc2cccc(C(N)=O)c2)cc1 | > 30 µM | > 30 µM | –
O=C(COc1ccc(C23CC4CC(CC(C4)C2)C3)cc1)Nc1ccccc1C(=O)O | – | 10.5 µM | –
O=C(COc1ccc(C23CC4CC(CC(C4)C2)C3)cc1)Nc1cccc(C(=O)NCCc2ccncc2)c1 | 3.1 µM | 8.2 µM | –
O=C(COc1ccc(-c2cccs2)cc1)Nc1cccc(C(=O)O)c1 | > 30 µM | > 30 µM | –

Compound | IC50 (AGS) | IC50 [1] | other results
O=C(COc1ccc(Br)cc1)Nc1cccc(C(=O)O)c1 | 1.6 µM | > 30 µM | –
COC(=O)c1ccc(O)c(NC(=O)COc2ccc(C34CC5CC(CC(C5)C3)C4)cc2)c1 | 0.7 µM | 2.6 µM | Activity [3]: Active; Activity [4]: Active; Activity [5]: Dose-dependent effect; Activity [6]: inactive; Activity [7]: Dose-dependent effect; Activity [2]: Dose-dependent effect
NC(=O)c1cccc(NC(=O)COc2ccc(C34CC5CC(CC(C5)C3)C4)cc2)c1 | 1 µM | 4.3 µM | Activity [2]: Dose-dependent effect
O=C(COc1ccc(C23CC4CC(CC(C4)C2)C3)cc1)Nc1cccc(C(=O)Nc2ccc(Cl)cc2)c1 | 9.5 µM | > 30 µM | –
O=C(COc1ccc(C23CC4CC(CC(C4)C2)C3)cc1)Nc1cccc(C(=O)O)c1 | 2.5 µM | 5 µM | Activity [5]: Dose-dependent effect; Activity [6]: inactive; Activity [7]: Dose-dependent effect; Activity [2]: Dose-dependent effect
O=C(COc1ccc(I)cc1)Nc1cccc(C(=O)O)c1 | 3.5 µM | 7.2 µM | –
O=C(COc1ccc(C23CC4CC(CC(C4)C2)C3)cc1)Nc1cc(C(=O)NCc2ccco2)ccc1O | 5.9 µM | 12.6 µM | –
NC(=O)c1ccc(O)c(NC(=O)COc2ccc(C34CC5CC(CC(C5)C3)C4)cc2)c1 | 1.5 µM | > 30 µM | –
Cc1ccc(-c2ccc(OCC(=O)Nc3cccc(C(=O)O)c3)cc2)cc1 | > 30 µM | 23.2 µM | –
O=C(COc1ccc(C23CC4CC(CC(C4)C2)C3)cc1)Nc1ccc(C(=O)O)cc1 | – | > 30 µM | –
O=C(COc1ccc(C23CC4CC(CC(C4)C2)C3)cc1)Nc1cccc(C(=O)NCc2ccco2)c1 | 2.1 µM | 14.08 µM | –
NC(=O)c1cccc(NC(=O)COc2ccccc2)c1 | > 30 µM | > 30 µM | –
O=C(COc1ccc(Cl)cc1)Nc1cccc(C(=O)O)c1 | 10 µM | > 30 µM | –
COC(=O)c1cccc(NC(=O)COc2ccc(C34CC5CC(CC(C5)C3)C4)cc2)c1 | 7.4 µM | 9.9 µM | –
CN(C)CCNC(=O)c1ccc(O)c(NC(=O)COc2ccc(C34CC5CC(CC(C5)C3)C4)cc2)c1 | 3 µM | > 30 µM | –
CC(C)(C)c1ccc(OCC(=O)Nc2cccc(C(=O)O)c2)cc1 | 9.5 µM | 29 µM | –
